The target in the assay is T1, AmxMT1 (Candidatus Brocadia fulgida, UniProt A0A0M2USF2).
T1 construct: gene BROFUL_02287; five N-terminal residues removed; C-terminal TEV site and 6xHis tag, His tag cleaved; codon-optimised, pET28b, E. coli C43(DE3) with pGro7; one molecule in the asymmetric unit
T1 sequence (A0A0M2USF2 6-354): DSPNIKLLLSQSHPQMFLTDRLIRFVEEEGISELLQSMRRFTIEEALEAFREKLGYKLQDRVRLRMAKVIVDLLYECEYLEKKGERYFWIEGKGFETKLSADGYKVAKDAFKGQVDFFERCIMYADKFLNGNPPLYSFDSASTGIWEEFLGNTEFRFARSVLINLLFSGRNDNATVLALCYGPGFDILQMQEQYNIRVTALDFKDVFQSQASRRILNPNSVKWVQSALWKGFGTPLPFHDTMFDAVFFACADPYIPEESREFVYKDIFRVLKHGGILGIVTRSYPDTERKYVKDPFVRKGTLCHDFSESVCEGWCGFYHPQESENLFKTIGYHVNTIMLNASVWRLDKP
Description: X-ray crystal structure of the complex (SAD phasing, molecular replacement). The class given is binding. Conditions: SAM (2.25 mM) added for crystallization, SAH found in the crystal; 5 mM DTT; HEPES pH 7.0, PEG 2000, 20 °C; cosubstrate pocket between core domain and inserted helix.

Structures are written as SMILES.

With `Nc1ncnc2c1ncn2[C@@H]1O[C@H](CSCC[C@H](N)C(=O)O)[C@@H](O)[C@H]1O` [SAH], the “X-ray crystal structure of the complex (SAD phasing, molecular replacement)” value is “S-adenosyl-L-homocysteine (SAH) is located in the pocket between the core domain and inserted helix”.

Values taken from publication PMC9821293, “Anammox Bacterial S-Adenosyl-L-Methionine Dependent Methyltransferase Crystal Structure and Its Interaction with Acyl Carrier Proteins” (International Journal of Molecular Sciences, 2023).
